Results published in paper PMC10096180, “Half-Sandwich Type Platinum-Group Metal Complexes of C-Glucosaminyl Azines: Synthesis and Antineoplastic and Antimicrobial Activities” (Molecules, 2023).
Like-named read-outs stand apart in the source and are kept apart here.

Key:
A2780 cells [1] = test: SRB binding assay, cytostasis, 48 h treatment; type: cell-based; settings: for A2780 SRB Max Inhibition: up to 100 μM, ND = not detectable
Outline: (§1)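 Ovarian cancer A2780 cells and primary human dermal fibroblasts treated 48 h, TCA-fixed, SRB-stained, absorbance at 540 nm relative to vehicle. IC50 from four-parameter fit when a plateau was reached or inhibition exceeded 90%; otherwise percent inhibition at 100 μM.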

[2] = test system: primary human dermal fibroblasts; test: SRB binding assay, cytostasis, 48 h treatment; type: cell-based; settings: up to 100 μM, ND = not detectable
Outline: as §1

[3] = Distribution coefficient (logD), n-octanol-PBS; type: physicochemical; settings: n-octanol-PBS (pH = 7.4) system
Procedure: The logD values of the newly synthesized complexes were determined according to a procedure described in our previous publications. page 64: Ir-7b +1.17 Rh-7b +1.41 Ru-7c +1.31 Os-7c +1.59 Ir-7c +1.40 Rh-7c +1.13 Ru-7d +1.26 Os-7d +1.42 Ir-7d +1.30 Rh-7d +1.04 Ru-7e +2.22 Os-7e +2.21 Ir-7e +1.39 Rh-7e +1.66 *logD was determined in an n-octanol-PBS (pH = 7.4) system 64 (14 pictures or pasted objects on this page, not shown here)

[4] = test system: vancomycin-resistant Enterococcus (VRE) clinical isolates; test: Broth microdilution MIC, clinical VRE isolates; type: cell-based, E. faecium; settings: 24 h, 0.08–40 μM
Outline: (§2)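 S. aureus and E. faecium clinical isolates (Debrecen, 2018–2020; MALDI-TOF-identified) tested by EUCAST broth microdilution in Mueller–Hinton broth at 5.0 × 10^5 CFU/mL across 0.08–40 μM (twofold). After 24 h at 37 °C, visually read; MIC is the lowest concentration giving ≥50% inhibition versus growth control. At least two runs in duplicate.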

A2780 cells [5] = test: MTT reduction assay, early toxicity, 4 h treatment; type: cell-based; settings: for A2780 MTT Max Inhibition: inhibition at maximum concentration (100 μM) where no plateau, ND = not detectable
Outline: (§3)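 Cells plated the day before, exposed to compounds for 4 h, then MTT 0.5 mg/mL for 40–60 min at 37 °C; reduced dye dissolved in DMSO, read at 540 nm relative to vehicle wells. IC50 by four-parameter fit; otherwise % inhibition at 100 μM.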

[6] = test system: primary human dermal fibroblasts; test: MTT reduction assay, early toxicity, 4 h treatment; type: cell-based; settings: up to 100 μM
Outline: as §3

[7] = test system: Staphylococcus aureus (ATCC29213); test: Broth microdilution MIC, reference strain; type: cell-based; settings: 24 h, 0.08–40 μM, read-out: MIC S. aureus ATCC 29213
Outline: (§4)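 EUCAST broth microdilution in Mueller–Hinton broth, inoculum 5.0 × 10^5 CFU/mL, compounds at 0.08–40 μM (twofold dilutions), 24 h at 37 °C. Plates read visually; MIC taken as lowest concentration giving ≥50% inhibition versus drug-free growth control.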

[8] = test system: Enterococcus faecalis (ATCC29212); test: Broth microdilution MIC, reference strain; type: cell-based; settings: 24 h, tested range 0.08–40 μM, read-out: MIC E. faecalis ATCC 29,212
Outline: as §4

[9] = test system: methicillin-resistant Staphylococcus aureus (MRSA) clinical isolates; test: Broth microdilution MIC, clinical MRSA isolates; type: cell-based; settings: 24 h, 0.08–40 μM
Outline: as §2

[10] = clinical isolate 25,051 VRE, read-out: MIC 25,051 VRE
[11] = clinical isolate 25,498 VRE, read-out: MIC 25,498 VRE
[12] = clinical isolate 27,085 VRE, read-out: MIC 27,085 VRE
[13] = clinical isolate 20,426 MRSA, read-out: MIC 20,426 MRSA
[14] = clinical isolate 24,035 MRSA, read-out: MIC 24,035 MRSA
[15] = clinical isolate 24,268 MRSA, read-out: MIC 24,268 MRSA
[16] = clinical isolate 24,272 MRSA, read-out: MIC 24,272 MRSA
[17] = clinical isolate 24,328 MRSA, read-out: MIC 24,328 MRSA
[18] = clinical isolate 24,408 MRSA, read-out: MIC 24,408 MRSA

IC50 (A2780 cells [1]) [µM] | Fibroblast SRB Max Inhibition [2] [%] | logD [3] | MIC [4, 10] [µM] | MIC [4, 11] [µM] | MIC [4, 12] [µM] | MIC [7] [µM] | MIC [8] [µM] | MIC [9, 13] [µM] | MIC [9, 14] [µM] | MIC [9, 15] [µM] | MIC [9, 16] [µM] | MIC [9, 17] [µM] | MIC [9, 18] [µM] | Structure (SMILES) | A2780 SRB Max Inhibition (A2780 cells [1]) [%] | IC50 (A2780 cells [5]) [µM] | A2780 MTT Max Inhibition (A2780 cells [5]) [%] | Fibroblast MTT Max Inhibition [6] [%]
8.58 | 49.00 | 2.15 | 5 | 5 | 10 | 10 | 5 | 10 | 10 | 5 | 5 | 5 | 5 | Cc1ccc(C(C)C)cc1.F[P-](F)(F)(F)(F)F.N[C@@H]1[C@@H](OC(=O)c2ccccc2)[C@H](OC(=O)c2ccccc2)[C@@H](COC(=O)c2ccccc2)O[C@H]1c1ccccn1.[Cl][Os+] [Os-7a] | >90 | 13.8 | >90 | 65.18
6.2 | 56.31 | 1.08 | 40 | 40 | 40 | 20 | 40 | 10 | 10 | 10 | 10 | 20 | 10 | Cc1c(C)c(C)[c-](C)c1C.F[P-](F)(F)(F)(F)F.N[C@@H]1[C@@H](OC(=O)c2ccccc2)[C@H](OC(=O)c2ccccc2)[C@@H](COC(=O)c2ccccc2)O[C@H]1c1ccccn1.[Cl][Ir+2] [Ir-7a] | >90 | 11.6 | >90 | 65.18
18.2 | 32.56 | 1.20 | >40 | >40 | >40 | >40 | >40 | >40 | >40 | >40 | >40 | >40 | >40 | Cc1c(C)c(C)[c-](C)c1C.F[P-](F)(F)(F)(F)F.N[C@@H]1[C@@H](OC(=O)c2ccccc2)[C@H](OC(=O)c2ccccc2)[C@@H](COC(=O)c2ccccc2)O[C@H]1c1ccccn1.[Cl][Rh+2] [Rh-7a] | >90 | – | 35.97 | 27.02
